Laboratory results taken from patent US9371265B2, “Compositions and methods related to inhibitors of JAK kinase” (EP PHARMA, INC., priority 2012, dated 2016).
“And” between values parts separate entries of the source, which are not always exact repeats. Equal entries are not always repeated.

Legend:
[1] = Oral pharmacokinetics in rats (plasma, LC-MS/MS); type: in vivo, Sprague Dawley rats; settings: single oral dose of 200 mg/kg
Description: FIGS. 9A-9B Pharmacokinetics and efficacy of EP009 in vivo. (A) Sprague Dawley rats were administered EP009 by oral gavage (200 mg/kg) and pharmacokinetics measured by analysis of plasma concentrations at indicated time points. Values represent mean concentrations, while error bars represent the standard deviation (n=5). (B) Therapeutic study of EP009 in SU-DHL-1 model in SCID/NOD mice.
EP009 (200 mg/kg) was administered orally to Sprague Dawley rats (Texas Animal Specialties) of ˜200 g weight (n=5) after an overnight fast. Blood (˜200 μl) was drawn at 0.5, 1, 2, 4, 8 and 24 hours after dosing and plasma was collected and snap-frozen in liquid nitrogen. EP009 plasma concentrations were determined by a liquid chromatography tandem mass spectrometry (LC-MS/MS) system. This system included a HPLC (Shimadzu Scientific Corporation) with an ACE C18 column (50×2.1 mm, 5 um) and an API-4000 (triple-quadruple) mass spectrometer (ABSciex, Inc) with an electrospray ionization source. A positive multiple reaction monitoring (MRM) scan was applied. The mobile phase A and B used in this study were 0.1% formic acid in 5 mM ammonium acetate and 0.1% formic acid in 100% acetonitrile. Plasma samples (50 μL) were mixed with 50 μL of blank plasma and 300 μL of internal standard solution (Verapamil, 20 ng/mL in 100% acetonitrile). After vortexing for 1 min and centrifuging for 5 min at 16,000×g, 300 μL supernatants were analyzed by LC-MS/MS. The limit of quantitation was 1 ng/mL of EP009 in plasma and the calibration range was from 1 to 2000 ng/mL.

MKNK2 = MKNK2 (Homo sapiens, UniProt Q9HBH9); assay: Kinase panel: MKNK2; type: biochemical; settings: 10 μM EP009
Description: (§1) Achieving JAK3 selectivity remains a significant challenge in the development of new small molecules for the treatment of cancer and immune-derived diseases. As such, the inventors employed cell-based screening assays of small-molecule libraries based upon the chemical scaffold of the established JAK3 inhibitor NC1153 (Stepkowski et al., J Immunol. (2005), 175(7):4236-4246) EP009 (FIG. 2A) was selected as a lead compound due to improved intrinsic stability (>95% purity in various solvents at 37° C. for 24 hours; FIG. 3) and high-degree of JAK3 selectivity. To test JAK3 versus JAK2 specificity of EP009, the IL-2/JAK3-dependent Kit225, and IL-3/JAK2-dependent BaF/3 cell lines were used. Kit225 and BaF/3 cells growing in the presence of IL-2 or IL-3, respectively, were treated with ascending concentrations of EP009 for 12 hours and cellular JAK3 and JAK2 tyrosine phosphorylation levels detected by Western blot analysis (FIGS. 2B and 2C). Following densitometric analysis, EP009 was determined to dose-dependently reduce IL-2-mediated JAK3 tyrosine phosphorylation with a cellular 50% inhibitory concentration (IC50) between 10 and 20 μM (FIG. 2B). […] To globally evaluate specificity, the inhibitory activity of EP009 was measured against a panel of protein kinases distributed throughout the kinome using the scanEDGE profiling service (KINOMEscan). […]

PAK2 = PAK2 (Homo sapiens, UniProt Q13177); assay: Kinase panel: PAK2; type: biochemical; settings: 10 μM EP009
Description: as §1

PDPK1 = PDPK1 (Homo sapiens, UniProt O15530); assay: Kinase panel: PDPK1; type: biochemical; settings: 10 μM EP009
Description: as §1

ROCK2 = ROCK2 (Homo sapiens, UniProt O75116); assay: Kinase panel: ROCK2; type: biochemical; settings: 10 μM EP009
Description: as §1

YANK3 = YANK3 (Homo sapiens, UniProt Q86UX6); assay: Kinase panel: YANK3; type: biochemical; settings: 10 μM EP009
Description: as §1

Chain of ROCK2 (O75116 whole entry): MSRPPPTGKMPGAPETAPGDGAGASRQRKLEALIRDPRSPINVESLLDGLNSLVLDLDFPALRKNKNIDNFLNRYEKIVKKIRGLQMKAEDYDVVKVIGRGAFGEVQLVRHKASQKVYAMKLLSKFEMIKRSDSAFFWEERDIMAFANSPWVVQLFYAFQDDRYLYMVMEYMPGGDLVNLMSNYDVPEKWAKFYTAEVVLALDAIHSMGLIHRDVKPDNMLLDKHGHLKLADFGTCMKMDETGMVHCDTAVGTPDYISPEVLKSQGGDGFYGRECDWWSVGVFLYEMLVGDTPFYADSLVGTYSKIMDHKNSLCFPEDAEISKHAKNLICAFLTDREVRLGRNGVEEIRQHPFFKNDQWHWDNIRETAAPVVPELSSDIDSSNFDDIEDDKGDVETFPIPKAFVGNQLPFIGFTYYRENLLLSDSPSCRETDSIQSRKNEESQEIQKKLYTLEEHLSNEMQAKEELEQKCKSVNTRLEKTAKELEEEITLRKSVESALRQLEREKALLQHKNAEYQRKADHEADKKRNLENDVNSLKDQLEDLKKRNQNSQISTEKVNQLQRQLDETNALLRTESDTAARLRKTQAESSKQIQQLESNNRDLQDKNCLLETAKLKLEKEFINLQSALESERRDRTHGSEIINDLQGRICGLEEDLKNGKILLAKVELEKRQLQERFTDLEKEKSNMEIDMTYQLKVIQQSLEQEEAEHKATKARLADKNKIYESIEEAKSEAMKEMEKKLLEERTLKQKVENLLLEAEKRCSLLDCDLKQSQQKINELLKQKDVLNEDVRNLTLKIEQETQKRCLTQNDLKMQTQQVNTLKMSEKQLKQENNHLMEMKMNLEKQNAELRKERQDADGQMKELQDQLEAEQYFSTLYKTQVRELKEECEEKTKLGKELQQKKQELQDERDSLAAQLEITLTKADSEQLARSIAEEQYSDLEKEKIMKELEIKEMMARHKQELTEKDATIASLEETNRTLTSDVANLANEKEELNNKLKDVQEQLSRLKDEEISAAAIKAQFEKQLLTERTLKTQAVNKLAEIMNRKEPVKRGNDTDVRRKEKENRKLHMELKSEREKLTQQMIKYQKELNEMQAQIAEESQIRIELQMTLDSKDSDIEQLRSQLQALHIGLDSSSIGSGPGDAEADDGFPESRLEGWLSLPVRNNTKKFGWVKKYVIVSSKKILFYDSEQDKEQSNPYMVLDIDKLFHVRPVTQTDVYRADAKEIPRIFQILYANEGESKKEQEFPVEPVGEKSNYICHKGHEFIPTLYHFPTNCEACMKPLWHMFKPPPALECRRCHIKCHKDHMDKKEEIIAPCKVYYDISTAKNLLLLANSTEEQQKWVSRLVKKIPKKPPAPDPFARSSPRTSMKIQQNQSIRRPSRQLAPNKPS
Chain of MKNK2 (Q9HBH9 whole entry): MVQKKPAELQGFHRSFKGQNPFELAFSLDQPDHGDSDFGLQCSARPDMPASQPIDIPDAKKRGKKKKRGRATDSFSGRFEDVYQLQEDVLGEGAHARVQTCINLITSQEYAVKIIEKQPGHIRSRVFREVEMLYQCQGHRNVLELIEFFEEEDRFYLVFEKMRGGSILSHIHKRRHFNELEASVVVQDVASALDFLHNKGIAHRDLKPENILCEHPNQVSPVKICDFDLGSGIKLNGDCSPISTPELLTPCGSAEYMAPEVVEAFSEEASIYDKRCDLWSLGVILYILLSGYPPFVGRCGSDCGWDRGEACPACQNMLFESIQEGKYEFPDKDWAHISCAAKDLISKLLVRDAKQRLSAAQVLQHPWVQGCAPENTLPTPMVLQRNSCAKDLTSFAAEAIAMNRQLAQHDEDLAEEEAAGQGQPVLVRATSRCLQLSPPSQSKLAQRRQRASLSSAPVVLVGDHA
Chain of PAK2 (Q13177 whole entry): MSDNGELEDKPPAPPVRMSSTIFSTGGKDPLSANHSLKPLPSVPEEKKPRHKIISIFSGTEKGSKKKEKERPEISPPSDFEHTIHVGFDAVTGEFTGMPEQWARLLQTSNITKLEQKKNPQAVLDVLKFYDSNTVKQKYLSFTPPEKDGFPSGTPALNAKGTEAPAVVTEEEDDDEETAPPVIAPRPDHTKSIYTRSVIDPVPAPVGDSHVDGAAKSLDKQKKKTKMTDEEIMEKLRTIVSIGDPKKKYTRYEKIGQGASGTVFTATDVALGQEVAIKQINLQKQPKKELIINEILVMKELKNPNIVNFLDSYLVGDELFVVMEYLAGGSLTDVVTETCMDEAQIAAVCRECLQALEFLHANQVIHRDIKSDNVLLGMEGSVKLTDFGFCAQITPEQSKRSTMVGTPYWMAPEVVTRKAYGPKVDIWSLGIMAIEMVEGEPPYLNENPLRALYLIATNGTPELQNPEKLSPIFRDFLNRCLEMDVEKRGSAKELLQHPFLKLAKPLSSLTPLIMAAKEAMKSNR
Chain of YANK3 (Q86UX6 whole entry): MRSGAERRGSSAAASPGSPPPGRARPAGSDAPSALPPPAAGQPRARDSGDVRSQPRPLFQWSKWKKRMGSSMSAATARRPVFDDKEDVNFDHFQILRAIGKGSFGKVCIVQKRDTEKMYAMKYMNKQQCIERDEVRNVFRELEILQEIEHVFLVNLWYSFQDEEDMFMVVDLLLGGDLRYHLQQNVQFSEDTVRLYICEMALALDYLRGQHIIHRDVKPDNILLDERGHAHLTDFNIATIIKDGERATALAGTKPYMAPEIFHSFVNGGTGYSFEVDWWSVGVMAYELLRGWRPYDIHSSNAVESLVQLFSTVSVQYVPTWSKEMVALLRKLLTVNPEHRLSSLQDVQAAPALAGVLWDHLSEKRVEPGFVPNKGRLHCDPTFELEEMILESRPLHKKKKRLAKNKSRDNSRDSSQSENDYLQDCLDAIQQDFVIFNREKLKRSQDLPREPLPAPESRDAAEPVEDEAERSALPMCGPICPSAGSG
Chain of PDPK1 (O15530 whole entry): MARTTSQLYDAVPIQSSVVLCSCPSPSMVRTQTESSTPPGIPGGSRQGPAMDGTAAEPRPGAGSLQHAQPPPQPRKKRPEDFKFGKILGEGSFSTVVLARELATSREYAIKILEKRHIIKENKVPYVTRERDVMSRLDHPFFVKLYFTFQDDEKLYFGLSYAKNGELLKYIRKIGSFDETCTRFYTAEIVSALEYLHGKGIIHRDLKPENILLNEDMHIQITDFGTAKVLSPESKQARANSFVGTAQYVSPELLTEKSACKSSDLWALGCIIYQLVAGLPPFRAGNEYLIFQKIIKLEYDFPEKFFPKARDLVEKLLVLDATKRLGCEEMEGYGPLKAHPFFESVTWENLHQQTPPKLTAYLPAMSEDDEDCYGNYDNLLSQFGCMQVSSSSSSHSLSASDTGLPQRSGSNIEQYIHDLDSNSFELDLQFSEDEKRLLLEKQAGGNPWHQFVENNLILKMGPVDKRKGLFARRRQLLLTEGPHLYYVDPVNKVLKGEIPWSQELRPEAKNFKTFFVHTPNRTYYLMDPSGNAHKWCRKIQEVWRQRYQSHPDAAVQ

For `C=C1CCCCCCCCCC(CO)C1=O` (stereo not drawn) [EP009, 2-(Hydroxymethyl)-12-methylenecyclododecanone], the AUC(0-t) ([1]; Sprague Dawley, rat, plasma, read-out: area under the concentration-time curve (AUC-t)) was 2110 ng·h/mL and 6.1 µM·h, the half-life ([1]; Sprague Dawley, rat, plasma, read-out: half-life (t1/2) (converted)) was 1 h and the Cmax ([1]; Sprague Dawley, rat, plasma, read-out: peak plasma concentration (Cmax)) was 2000 ng/mL and 5.74 µM. The “plasma levels eight hours after dosing” value [1] was “declined to the limit of detection”, the “Kinase Activity (% of Control)” value (MKNK2) was 100 % of Control and the “Kinase Activity (% of Control)” value (PAK2) was 100 % of Control. The “Kinase Activity (% of Control)” value (PDPK1) was 100 % of Control, the “Kinase Activity (% of Control)” value (ROCK2) was 99 % of Control and the “Kinase Activity (% of Control)” value (YANK3) was 98 % of Control.
